One series concerns the target T1, CYP2C19 (Homo sapiens, UniProt P33261).
T1 construct: purchased Cypex; host or cells: bactosomes (bacterial membranes)
In words: Cytochrome p450 inhibition assay (bactosomes, fluorogenic substrate BMC). It counts as biochemical. Conditions: recombinant human CYP (Cypex bactosomes). As to the method: (§1) The assay was designed to evaluate inhibition on cytochrome P450 (CYP) 3A4, 2C9, 2C19, 1A2 and 2D6 enzymes from bactosomes source using fluorogenic substrates. Compound (compound of Formula (I) or Comparator Compound) was dissolved in methanol at 1.65 mM. Daughter solutions were prepared in methanol at 660, 264, 106, 42, 17, 6.8, 2.7, 1.1 and 0.43 μM. NADPH cofactor was prepared with Glucose-6-phosphate (7.8 mg), Glucose-6-phosphate dehydrogenase (6 units), NADP (1.7 mg) per 1 mL in NaHCO3 2%. Substrate preparation was as follows: • 7-Methoxy-4-triFluoromethyl Coumarin-3-Acetic acid ethyl ester (FCA): 12.5 mM in acetonitrile • EthoxyResorufin (ER): 0.05 mM in acetonitrile • 4-MethylaminoMethyl-7-Methoxy Coumarin (MMC): 2.5 mM in methanol • 3-Butyryl-7Methoxy Coumarin (BMC): 2.5 mM in DMSO • 7-BenzyloxyQuinoline (7BQ): 2.5 mM in acetonitrile • DiEthoxyFluorescein (DEF): 0.1 mM in acetonitrile Bactosomes (Cypex source) at the concentration of 10 mg of protein per ml were diluted in phosphate buffer 50 mM pH7.4: • 0.33 ml of bactosomes CYP2C9 with 23.8 ml of buffer and 0.11 ml of FCA • 0.33 ml of bactosomes CYP1A2 with 23.6 ml of buffer and 0.275 ml of ER • 0.33 ml of bactosomes CYP2D6 with 23.8 ml of buffer and 0.11 ml of MMC • 0.33 ml of bactosomes CYP2C19 with 23.8 ml of buffer and 0.11 ml of BMC • 0.33 ml of bactosomes CYP3[…] with 23.6 ml of buffer and 0.275 ml of 7BQ • 0.33 ml of bactosomes CYP3[…] with 23.6 ml of buffer and 0.275 ml of DEF Pre-Incubation consisted in mixing 5 μl of compound solution with 220 μl diluted bactosomes and warming it at 37° C. for 10 min. Incubation was started with the addition of 25 μl of NADPH. […]

The nature of series [1]: Intestinal microsomal stability. It counts as in vitro ADME. The note with it: 37° C., even after 60 minutes. As to the method: (§2) The assay was designed for determining stability of compound in microsomal matrix. Compound (Compound of Formula (I)) was dissolved in DMSO at 1 mg/ml. Daughter solution was prepared in methanol/water (50/50) at 30.3 ng/ml. Microsomes (from Xenotech) were diluted at 0.625 mg proteins per ml in phosphate buffer 50 mM pH 7.4.
Pre-Incubation consisted of warming microsomal solution 395 μl with 100 μl NaHCO3 (2%) at 37° C. for 7 min. Incubation was started with the addition of 5 μl of daughter solution. […]
(§3) After 10 min centrifugation at 4000 rpm, 2 μl of samples were injected into the liquid chromatography system and eluted on a Ascentis C18 column (50×2.1 mm id, 2.7 μm) with 0.1% formic acid in water (A) and 0.1% formic acid in acetonitrile (B), using the following 2 minute elution gradient: 5 to 95% B over 1.2 min, 95% B over 0.6 min and 0.1 min for re-equilibrate column, at 0.5 mL/min at 50° C.
Samples were analysed by Mass Spectrometry with an electrospray source, in positive mode and with following mass transitions: • Compound of Formula (I): 657 to 384 • Monoester of CPHPC: 499 to 226 • CPHPC: 341 to 226
Controls were made to calculate percentage of disappearance of parent but also appearance of suspected metabolite, i.e. monoester and diacidic form.

For the next series, the target named is T2, CYP1A2 (Homo sapiens, UniProt P05177).
T2 construct: purchased Cypex; host or cells: bactosomes (bacterial membranes)
T2 sequence (P05177 1-516): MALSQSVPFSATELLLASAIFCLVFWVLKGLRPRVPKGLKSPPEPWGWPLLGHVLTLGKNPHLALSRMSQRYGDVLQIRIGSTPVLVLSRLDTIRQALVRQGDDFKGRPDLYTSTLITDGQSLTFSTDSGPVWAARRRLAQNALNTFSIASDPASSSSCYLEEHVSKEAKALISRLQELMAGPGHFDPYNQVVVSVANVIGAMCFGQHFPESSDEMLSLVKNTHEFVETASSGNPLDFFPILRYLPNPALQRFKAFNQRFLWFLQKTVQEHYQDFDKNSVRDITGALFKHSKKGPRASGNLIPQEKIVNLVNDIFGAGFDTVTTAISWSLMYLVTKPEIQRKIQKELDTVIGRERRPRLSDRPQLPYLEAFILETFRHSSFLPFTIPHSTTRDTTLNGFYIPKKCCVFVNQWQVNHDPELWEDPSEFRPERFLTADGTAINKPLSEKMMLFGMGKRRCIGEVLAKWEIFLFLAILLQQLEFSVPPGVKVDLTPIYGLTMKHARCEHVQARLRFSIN
In words: Cytochrome p450 inhibition assay (bactosomes, fluorogenic substrate ER). It counts as biochemical. The note with it: recombinant human CYP (Cypex bactosomes). How it is done: as §1

Series [2] in a line: Solubility in aqueous media. It counts as physicochemical. The note with it: for solubility at 4 h: thermodynamic from solid, read-out: Solubility at 4 hour timepoint. How it is done:
A known quantity of the compound of Formula (I) was weighed into a suitable vessel (e.g. a screw capped clear glass vial) and a known volume of the required media added (e.g. Simulated Gastric Fluid pH 1.6[SGF], Simulated Fed State Intestinal Fluid pH 6.5 [FeSSIF], Simulated Fasted State Intestinal Fluid pH 6.5 [FaSSIF], Water [Purified Water], or Britton-Robinson buffer). The compound was wetted with the media by vortex mixing for 30 seconds to 1 minute. The sample was then visually observed to ensure that undissolved solid remained present. The sample was transferred to a gentle mixer (such as a roller mixer) and allowed to agitate until the desired time point was reached. At appropriate times the sample was reassessed visually. If all the solid had dissolved the solubility was recorded as >x mg/ml where x is the known weight used divided by the volume added. If undissolved solid remained a portion of the sample was taken and centrifuged to remove the solid leaving a clear supernatant. The supernatant was diluted volumetrically with a suitable diluent to provide an analytical sample of suitable concentration for analysis. This diluted sample was then analysed by a suitable method such as HPLC against a standard(s) of known concentration. The solubility of the compound can then be calculated using a knowledge of the concentration of the standard, the relative response (e.g. peak areas) of the standard and the analytical sample described, and the dilution of the analytical sample.

For another series, the target named is T3, CYP2C9 (Homo sapiens, UniProt P11712).
T3 construct: purchased Cypex; host or cells: bactosomes (bacterial membranes)
T3 sequence (P11712 whole entry): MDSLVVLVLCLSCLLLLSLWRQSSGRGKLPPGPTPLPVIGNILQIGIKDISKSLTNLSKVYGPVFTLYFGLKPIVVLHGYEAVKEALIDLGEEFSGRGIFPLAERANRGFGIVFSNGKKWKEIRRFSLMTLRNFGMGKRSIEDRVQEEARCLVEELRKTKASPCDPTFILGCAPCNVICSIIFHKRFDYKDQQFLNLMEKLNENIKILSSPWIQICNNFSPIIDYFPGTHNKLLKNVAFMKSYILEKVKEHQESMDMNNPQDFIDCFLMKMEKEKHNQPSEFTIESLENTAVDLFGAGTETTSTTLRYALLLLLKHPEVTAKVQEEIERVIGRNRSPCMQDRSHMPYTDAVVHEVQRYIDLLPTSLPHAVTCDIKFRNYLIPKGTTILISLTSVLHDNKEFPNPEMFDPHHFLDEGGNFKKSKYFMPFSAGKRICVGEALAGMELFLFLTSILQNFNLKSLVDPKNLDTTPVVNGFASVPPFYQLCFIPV
Description: Cytochrome p450 inhibition assay (bactosomes, fluorogenic substrate FCA). It counts as biochemical. The note with it: recombinant human CYP (Cypex bactosomes). As to the method:
as §1

The next series has as its target T4, CYP3A4 (Homo sapiens, UniProt P08684).
T4 construct: purchased Cypex; host or cells: bactosomes (bacterial membranes)
Description: Cytochrome p450 inhibition assay (bactosomes, fluorogenic substrates 7BQ and DEF). It counts as biochemical. Conditions: recombinant human CYP (Cypex bactosomes). As to the method: The assay was designed to evaluate inhibition on cytochrome P450 (CYP) 3A4, 2C9, 2C19, 1A2 and 2D6 enzymes from bactosomes source using fluorogenic substrates. Compound (compound of Formula (I) or Comparator Compound) was dissolved in methanol at 1.65 mM. Daughter solutions were prepared in methanol at 660, 264, 106, 42, 17, 6.8, 2.7, 1.1 and 0.43 μM. NADPH cofactor was prepared with Glucose-6-phosphate (7.8 mg), Glucose-6-phosphate dehydrogenase (6 units), NADP (1.7 mg) per 1 mL in NaHCO3 2%. Substrate preparation was as follows: • 7-Methoxy-4-triFluoromethyl Coumarin-3-Acetic acid ethyl ester (FCA): 12.5 mM in acetonitrile • EthoxyResorufin (ER): 0.05 mM in acetonitrile • 4-MethylaminoMethyl-7-Methoxy Coumarin (MMC): 2.5 mM in methanol • 3-Butyryl-7Methoxy Coumarin (BMC): 2.5 mM in DMSO • 7-BenzyloxyQuinoline (7BQ): 2.5 mM in acetonitrile • DiEthoxyFluorescein (DEF): 0.1 mM in acetonitrile Bactosomes (Cypex source) at the concentration of 10 mg of protein per ml were diluted in phosphate buffer 50 mM pH7.4: • 0.33 ml of bactosomes CYP2C9 with 23.8 ml of buffer and 0.11 ml of FCA • 0.33 ml of bactosomes CYP1A2 with 23.6 ml of buffer and 0.275 ml of ER • 0.33 ml of bactosomes CYP2D6 with 23.8 ml of buffer and 0.11 ml of MMC • 0.33 ml of bactosomes CYP2C19 with 23.8 ml of buffer and 0.11 ml of BMC • 0.33 ml of bactosomes CYP3[…] with 23.6 ml of buffer and 0.275 ml of 7BQ • 0.33 ml of bactosomes CYP3[…] with 23.6 ml of buffer and 0.275 ml of DEF Pre-Incubation consisted in mixing 5 μl of compound solution with 220 μl diluted bactosomes and warming it at 37° C. for 10 min. Incubation was started with the addition of 25 μl of NADPH. Then fluorescence of substrate metabolite was read in a SAFIRE instrument (from Tecan) for 5 min: • FCA (2C9): Excitation at 410 nm and Emission at 510 nm • ER (1A2): Excitation at 530 nm and Emission at 590 nm • MMC (2D6): Excitation at 410 nm and Emission at 485 nm • BMC (2C19): Excitation at 410 nm and Emission at 465 nm • 7BQ (3A4H): Excitation at 410 nm and Emission at 530 nm • DEF (3A4L): Excitation at 485 nm and Emission at 530 nm Plotting of inhibition of substrate production against compound concentration allowed the determination of IC50 values.

The next series concerns the target T5, CYP2D6 (Homo sapiens, UniProt P10635).
T5 construct: purchased Cypex; host or cells: bactosomes (bacterial membranes)
Description: Cytochrome p450 inhibition assay (bactosomes, fluorogenic substrate MMC). It counts as biochemical. Conditions: recombinant human CYP (Cypex bactosomes). How it is done:
as §1

A short description of series [3]: Liver microsomal stability. It counts as in vitro ADME. How it is done: as §2
Pre-Incubation consisted of warming microsomal solution 395 μl with 100 μl NaHCO3 (2%) at 37° C. for 7 min. Incubation was started with the addition of 5 μl of daughter solution. 50 μl aliquots of mixture were taken at 0, 3, 6, 12 and 30 min and quenched with 150 μl acetonitrile containing internal standard.
as §3
Samples were analysed by Mass Spectrometry with an electrospray source, in positive mode and with following mass transitions: • Compound of Formula (I): 657 to 384 • Monoester of CPHPC: 499 to 226 • CPHPC: 341 to 226 […]
In vitro liver microsomal activity of was assessed using the protocol detailed above (Intestine and Liver Microsomal Assay protocol).

Series [4] is described as follows: Physical stability (hydrolysis) in phosphate buffer at various pHs. The class given is physicochemical. The note with it: acidic environment (pH less than 7.0), room temperature. How it is done: The assay was designed for determining physical stability of compound in buffer at various pHs. Compound of Formula (I) was dissolved in DMSO at 1 mg/ml. Phosphate buffer (PBS) was prepared by mixing K2HPO4 50 mM and KH2PO4 50 mM solutions to obtain 4 buffers at pH 6.0, 7.0, 7.5, 8.0.
Stability studies were conducted at room temperature, and were started by the addition of 8 μl of DMSO solution to 792 μl of PBS 50 mM at pH 6.0, 7.0, 7.5 or 8.0 (1% DMSO). 75 μl of mixture was taken at 0, 1, 2, 4 and 24 h and 225 μl acetonitrile containing internal standard was added.
2 μl of samples were injected into the liquid chromatography system and eluted with a Ascentis C18 column (50×2.1 mm id, 2.7 μm) and with 0.1% formic acid in water (A) and 0.1% formic acid in acetonitrile (B), using the following elution 2 min gradient: 5 to 95% B over 1.2 min, 95% B over 0.6 min and 0.1 min for re-equilibrate column, at 0.5 mL/min at 50° C.
Samples were analysed by Mass Spectrometry with an electrospray source and in positive mode and with following mass transitions: • Compound of Formula (I): 657 to 384 • Monoester of CPHPC: 499 to 226 • CPHPC: 341 to 226

Where [5] appears, read: substrate 7BQ, read-out: IC50 CYP3A4 (7BQ).
Setting [6] is: substrate DEF, read-out: IC50 CYP3A4 (DEF).

pIC50: −log10 of the molar value. Read-outs that look alike come from different tables or passages of the source.

In general, pIC50 refers to the negative decadic logarithm of the IC50, by convention in mol/L. By solubility is commonly meant how much of the substance goes into solution per volume.

T4 sequence (P08684 whole entry): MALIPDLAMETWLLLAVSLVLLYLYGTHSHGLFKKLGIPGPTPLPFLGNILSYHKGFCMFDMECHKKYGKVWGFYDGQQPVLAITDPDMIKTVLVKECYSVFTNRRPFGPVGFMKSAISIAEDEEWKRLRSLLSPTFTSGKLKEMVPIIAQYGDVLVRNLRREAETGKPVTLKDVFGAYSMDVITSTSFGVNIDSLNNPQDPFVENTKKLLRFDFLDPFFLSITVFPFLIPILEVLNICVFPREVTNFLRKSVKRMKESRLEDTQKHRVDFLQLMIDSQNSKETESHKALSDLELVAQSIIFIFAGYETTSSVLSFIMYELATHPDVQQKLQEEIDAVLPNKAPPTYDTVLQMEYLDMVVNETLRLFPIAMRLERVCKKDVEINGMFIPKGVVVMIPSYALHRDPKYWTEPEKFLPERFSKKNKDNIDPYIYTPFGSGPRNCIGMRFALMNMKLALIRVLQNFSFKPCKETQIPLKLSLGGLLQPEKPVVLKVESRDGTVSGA
T1 sequence (P33261 whole entry): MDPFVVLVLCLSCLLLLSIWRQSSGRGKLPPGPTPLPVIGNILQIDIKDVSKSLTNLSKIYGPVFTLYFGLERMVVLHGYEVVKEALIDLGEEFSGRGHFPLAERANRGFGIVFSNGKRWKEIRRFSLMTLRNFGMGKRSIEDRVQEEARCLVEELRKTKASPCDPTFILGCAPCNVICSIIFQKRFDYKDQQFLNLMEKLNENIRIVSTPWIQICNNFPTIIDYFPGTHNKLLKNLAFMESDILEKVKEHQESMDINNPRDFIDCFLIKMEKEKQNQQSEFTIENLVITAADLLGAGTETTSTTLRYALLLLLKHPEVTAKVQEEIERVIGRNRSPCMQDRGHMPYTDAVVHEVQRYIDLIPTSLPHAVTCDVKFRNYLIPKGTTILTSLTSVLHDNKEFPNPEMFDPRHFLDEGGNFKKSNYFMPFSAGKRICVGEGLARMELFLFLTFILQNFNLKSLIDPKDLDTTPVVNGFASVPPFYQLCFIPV
T5 sequence (P10635 whole entry): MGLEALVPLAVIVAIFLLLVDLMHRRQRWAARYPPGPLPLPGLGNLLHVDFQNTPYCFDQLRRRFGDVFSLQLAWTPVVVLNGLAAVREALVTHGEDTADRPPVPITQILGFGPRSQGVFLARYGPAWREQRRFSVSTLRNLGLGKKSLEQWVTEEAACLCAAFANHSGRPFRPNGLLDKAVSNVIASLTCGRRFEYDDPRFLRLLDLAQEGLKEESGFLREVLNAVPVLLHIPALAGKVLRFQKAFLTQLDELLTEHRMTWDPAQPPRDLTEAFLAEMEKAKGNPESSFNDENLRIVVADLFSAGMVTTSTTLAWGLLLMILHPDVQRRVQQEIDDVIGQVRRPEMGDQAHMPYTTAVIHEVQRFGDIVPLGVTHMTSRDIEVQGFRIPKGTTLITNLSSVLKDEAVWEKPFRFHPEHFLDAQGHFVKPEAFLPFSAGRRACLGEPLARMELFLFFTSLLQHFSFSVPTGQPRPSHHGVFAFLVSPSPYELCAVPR

Turning to `O=C(OCOC(=O)[C@H]1CCCN1C(=O)CCCCC(=O)N1CCC[C@@H]1C(=O)OCOC(=O)OC1CCOCC1)OC1CCOCC1` [Compound of Formula (I), (2R,2′R)-Bis(((((tetrahydro-2H-pyran-4-yl)oxy)carbonyl)oxy)methyl) 1,1′-adipoylbis(pyrrolidine-2-carboxylate)], the negative logarithm of the IC50 (pIC50) on CYP2C19, on CYP1A2, on CYP2C9, at CYP3A4 (setting [5]), at CYP3A4 (setting [6]) and on CYP2D6 was less than 4.48 each time. In addition, the “Rate of hydrolysis in human intestinal microsomes” value in series [1] is listed as “low rate of hydrolysis”. In series [2] (biologically relevant media), the “Solubility in biologically relevant media” value is “highly soluble”. In addition, the solubility at 4 h in series [2] (FaSSIF (Simulated Fasted State Intestinal Fluid pH 6.5)) was 4400 µg/mL; in [2] (FeSSIF (Simulated Fed State Intestinal Fluid pH 6.5)) it was 5000 µg/mL; in series [2] (SGF (Simulated Gastric Fluid pH 1.6)) it was 5200 µg/mL; in series [2] (water (purified water), Water), 5500 µg/mL. In addition, the “Rate of hydrolysis to CPHPC in human liver microsomes” value in series [3] is recorded as “high rate of hydrolysis”. Moreover, in series [4], the “Compound hydrolysed after 24 h” value is “Less than 20%”.

In the case of `O=C(OCOC(=O)[C@H]1CCCN1C(=O)CCCCC(=O)N1CCC[C@@H]1C(=O)O)OC1CCOCC1` [mono-ester derivative, (R)-1-(6-oxo-6-((R)-2-((((((tetrahydro-2H-pyran-4-yl)oxy)carbonyl)oxy)methoxy)carbonyl)pyrrolidin-1-yl)hexanoyl)pyrrolidine-2-carboxylic acid], the negative-log IC50 (pIC50) at CYP2C19, at CYP1A2, on CYP2C9, on CYP3A4 (setting [5]), at CYP3A4 (setting [6]) and at CYP2D6 was less than 4.48 in each case.

The values are drawn from patent US9737505B2, “Prodrug of 1,1′-(1,6-dioxo-1,6-hexanediyl)bis-D-proline” (GlaxoSmithKline Intellectual Property Development Limited, priority 2014, dated 2017).
